Reference: patent US7964531B2, “3-phenoxy-4-pyridazinol derivatives and herbicidal composition containing the same” (Mitsui Chemicals Agro, Inc., priority 2001, dated 2011)

Experiments:
Type in all cases: in vivo
Conditions in all cases: wettable powder applied 3 days after transplanting, judged after 25 days
[1] = test system: annual broad-leaved weeds (Lindernia spp., Rotala indica); assay: Test Example 1: herbicidal effects, paddy-field pot test
Outline: (§1)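 Paddy-soil pots sown with weed seeds, germinated Cyperus serotinus tubers and 2.2-leaf rice transplants, kept flooded in a greenhouse. Wettable powder diluted in water applied at set dosage 3 days after transplanting. Weed control and rice injury scored 25 days later on a 0-5 growth-inhibition scale.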

Cyperus serotinus = assay: as above
Outline: as §1

Scirpus joncoides = assay: as above
Outline: as §1

[2] = test system: barnyardgrass (Echinochloa oryzicola Vasing.); assay: as above
Outline: as §1

[3] = test system: transplanted paddy-field rice; assay: Test Example 1: crop injury against transplanted paddy-field rice
Outline: as §1

SMILES | Herbicidal effects Broad leaf ([1]; chemical dosage 10 g/a) | Herbicidal effects Broad leaf ([1]; chemical dosage 20 g/a) | Herbicidal effects Cyperus serotinus (Cyperus serotinus; chemical dosage 10 g/a) | Herbicidal effects Cyperus serotinus (Cyperus serotinus; chemical dosage 20 g/a) | Herbicidal effects Scirpus joncoides (Scirpus joncoides; chemical dosage 10 g/a) | Herbicidal effects Scirpus joncoides (Scirpus joncoides; chemical dosage 20 g/a) | Herbicidal effects Barnyard grass ([2]; chemical dosage 10 g/a) | Herbicidal effects Barnyard grass ([2]; chemical dosage 20 g/a) | Crop injury against transplanted rice ([3]; chemical dosage 10 g/a) | Crop injury against transplanted rice ([3]; chemical dosage 20 g/a) | Herbicidal effects Broad leaf ([1]; chemical dosage 12.5 g/a) | Herbicidal effects Broad leaf ([1]; chemical dosage 25 g/a) | Herbicidal effects Cyperus serotinus (Cyperus serotinus; chemical dosage 12.5 g/a) | Herbicidal effects Cyperus serotinus (Cyperus serotinus; chemical dosage 25 g/a) | Herbicidal effects Scirpus joncoides (Scirpus joncoides; chemical dosage 12.5 g/a) | Herbicidal effects Scirpus joncoides (Scirpus joncoides; chemical dosage 25 g/a) | Herbicidal effects Barnyard grass ([2]; chemical dosage 12.5 g/a) | Herbicidal effects Barnyard grass ([2]; chemical dosage 25 g/a) | Crop injury against transplanted rice ([3]; chemical dosage 12.5 g/a) | Crop injury against transplanted rice ([3]; chemical dosage 25 g/a)
Oc1cc(Cl)nnc1Oc1cc(F)ccc1C1CC1 [Example 216] | 5 (Growth inhibition rate; 91 to 100%) | 5 (Growth inhibition rate; 91 to 100%) | 5 (Growth inhibition rate; 91 to 100%) | 5 (Growth inhibition rate; 91 to 100%) | 5 (Growth inhibition rate; 91 to 100%) | 5 (Growth inhibition rate; 91 to 100%) | 4 (Growth inhibition rate; 71 to 90%) | 4 (Growth inhibition rate; 71 to 90%) | 0 (Growth inhibition rate; 0 to 10%) | 2 (Growth inhibition rate; 31 to 50%) | – | – | – | – | – | – | – | – | – | –
Oc1cc(Cl)nnc1Oc1cc(Cl)ccc1C1CC1 [Example 217] | 5 (Growth inhibition rate; 91 to 100%) | 5 (Growth inhibition rate; 91 to 100%) | 5 (Growth inhibition rate; 91 to 100%) | 5 (Growth inhibition rate; 91 to 100%) | 5 (Growth inhibition rate; 91 to 100%) | 5 (Growth inhibition rate; 91 to 100%) | 2 (Growth inhibition rate; 31 to 50%) | 4 (Growth inhibition rate; 71 to 90%) | 0 (Growth inhibition rate; 0 to 10%) | 0 (Growth inhibition rate; 0 to 10%) | – | – | – | – | – | – | – | – | – | –
CC(C)(C)c1ccccc1Oc1nnc(Cl)cc1O [Example 61] | – | – | – | – | – | – | – | – | – | – | 5 (Growth inhibition rate; 91 to 100%) | 5 (Growth inhibition rate; 91 to 100%) | 5 (Growth inhibition rate; 91 to 100%) | 5 (Growth inhibition rate; 91 to 100%) | 5 (Growth inhibition rate; 91 to 100%) | 5 (Growth inhibition rate; 91 to 100%) | 1 (Growth inhibition rate; 11 to 30%) | 2 (Growth inhibition rate; 31 to 50%) | 0 (Growth inhibition rate; 0 to 10%) | 0 (Growth inhibition rate; 0 to 10%)
Cc1ccc(S(=O)(=O)Oc2cc(Cl)nnc2Oc2ccccc2C2CC2)cc1 [Example 27] | 5 (Growth inhibition rate; 91 to 100%) | 5 (Growth inhibition rate; 91 to 100%) | 5 (Growth inhibition rate; 91 to 100%) | 5 (Growth inhibition rate; 91 to 100%) | 4 (Growth inhibition rate; 71 to 90%) | 5 (Growth inhibition rate; 91 to 100%) | 2 (Growth inhibition rate; 31 to 50%) | 4 (Growth inhibition rate; 71 to 90%) | 0 (Growth inhibition rate; 0 to 10%) | 0 (Growth inhibition rate; 0 to 10%) | – | – | – | – | – | – | – | – | – | –
COc1cccc(C2CC2)c1Oc1nnc(Cl)cc1O [Example 276] | 5 (Growth inhibition rate; 91 to 100%) | 5 (Growth inhibition rate; 91 to 100%) | 5 (Growth inhibition rate; 91 to 100%) | 5 (Growth inhibition rate; 91 to 100%) | 3 (Growth inhibition rate; 51 to 70%) | 4 (Growth inhibition rate; 71 to 90%) | 3 (Growth inhibition rate; 51 to 70%) | 4 (Growth inhibition rate; 71 to 90%) | 0 (Growth inhibition rate; 0 to 10%) | 0 (Growth inhibition rate; 0 to 10%) | – | – | – | – | – | – | – | – | – | –
CCOc1cccc(C2CC2)c1Oc1nnc(Cl)cc1O [Example 277] | 5 (Growth inhibition rate; 91 to 100%) | 5 (Growth inhibition rate; 91 to 100%) | 5 (Growth inhibition rate; 91 to 100%) | 5 (Growth inhibition rate; 91 to 100%) | – | 5 (Growth inhibition rate; 91 to 100%) | 0 (Growth inhibition rate; 0 to 10%) | 1 (Growth inhibition rate; 11 to 30%) | 0 (Growth inhibition rate; 0 to 10%) | 0 (Growth inhibition rate; 0 to 10%) | – | – | – | – | – | – | – | – | – | –
Oc1cc(Cl)nnc1Oc1cccc2c1OCO2 [Example 192] | 2 (Growth inhibition rate; 31 to 50%) | 3 (Growth inhibition rate; 51 to 70%) | 5 (Growth inhibition rate; 91 to 100%) | 5 (Growth inhibition rate; 91 to 100%) | 5 (Growth inhibition rate; 91 to 100%) | 5 (Growth inhibition rate; 91 to 100%) | 2 (Growth inhibition rate; 31 to 50%) | 5 (Growth inhibition rate; 91 to 100%) | 0 (Growth inhibition rate; 0 to 10%) | 1 (Growth inhibition rate; 11 to 30%) | – | – | – | – | – | – | – | – | – | –
Cc1ccc(C)c(Oc2nnc(Cl)cc2O)c1 [Example 205] | – | – | – | – | – | – | – | – | – | – | 5 (Growth inhibition rate; 91 to 100%) | 5 (Growth inhibition rate; 91 to 100%) | 5 (Growth inhibition rate; 91 to 100%) | 5 (Growth inhibition rate; 91 to 100%) | 5 (Growth inhibition rate; 91 to 100%) | 5 (Growth inhibition rate; 91 to 100%) | 0 (Growth inhibition rate; 0 to 10%) | 1 (Growth inhibition rate; 11 to 30%) | 0 (Growth inhibition rate; 0 to 10%) | 0 (Growth inhibition rate; 0 to 10%)
